From patent publication US12053513B2, “Cancer-specific T-cell receptors” (UNIVERSITY COLLEGE CARDIFF CONSULTANTS LTD., priority 2018, dated 2024)

Key:
Assay type in all cases: cell-based, human
[1] = test system: CD8+ T-cells from HLA A2+ healthy donors; assay: Priming of CD8+ T-cells from healthy donors, tetramer staining; details: three healthy donors, tetramers, compared to WT peptides
Experimental: To generate T-cell peptide lines, CD8 T-cells were purified from the PBMCs of HLA A2+ donors using CD8 microbeads according to the manufacturer's instructions (Miltenyi Biotech, Bergisch Gladbach, Germany). Purified CD8 cells (3×10^6) were co-incubated with autologous CD8neg cells (6-8×10^6) in 24 well plates in 2 mL of T-cell media, but with no IL-15. 25 μM of each peptide was used. The cultures had 50% of the media changed thrice weekly. Tetramer staining was performed as above, using 500,000 cells per tube. Each T-cell line was used in an IFNγ enzyme linked immunosorbent spot (ELISpot) assay with cell lines MDA-MB-231, melanoma MM909.24 and Saos-2. 50,000 T-cells and 15,000 cancer cells were used per well. Incubation was performed for 48 h, and the assay developed according the manufacturer's instructions (Mabtech, Nacka Strand, Sweden).
CPL assay of CR24 was performed as described above. Candidate peptide agonists were designed using the CR24 CPL and an online algorithm (wsb.warwick.ac.uk/wsbcToolsWebpage/user_cases.php). Priming of CD8 T-cells from healthy donors, tetramer staining and chromium release cytotoxicity assays were performed as described above.

[2] = test system: autologous melanoma cells; assay: Chromium release cytotoxicity assay of peptide primed T-cell lines; details: patient 37; compared to WT Melan A peptide primed T-cells
[3] = test system: CD8 T-cells from a renal cell carcinoma (RCC) and chronic lymphocytic leukaemia (CLL) patient; assay: Priming of CD8 T-cells from RCC and CLL patients, TAPI-0 assay or tetramer staining; details: primed 28 days
Excerpt: (§1) (FIG. 14A) CD8 T-cells from a renal cell carcinoma (RCC) and chronic lymphocytic leukaemia (CLL) patient were left unprimed or primed with […] (SEQ ID NO: 80) peptide for 28 days. […] (SEQ ID NO: 80) peptide for 28 days.

autologous cancer cells = assay: Killing of autologous cancer cells by primed CD8s (RCC and CLL patient); details: compared to unprimed T-cells
Excerpt: as §1

[4] = test system: CD8 T-cells from an acute myeloid leukaemia (AML) patient and two CLL patients; assay: Priming of CD8 T-cells from AML and CLL patients, IMP-2 tetramer; details: primed 28 days, versus unprimed
CLL cells = assay: Killing assay with primed T-cells from CLL patient 3; details: compared to IMP-2 primed CD8s
Excerpt: as §1

Sequence | priming of Melan A, BST2 and IMP2 T-cells [1] | priming of Melan A, BST2 and IMP2 T-cells ([1]; listed as MTSAIGVLVP) | lysis of autologous melanoma cells by primed T-cells [2] | MTSAIGILPV specific T-cells after priming [3] | killing of autologous cancer cells by primed CD8s (autologous cancer cells) | proportion of IMP-2 specific T-cells after priming [4] | killing of CLL cells by primed T-cells (CLL cells)
ITSAIGILPV (listed as Homo sapiens) [APL 2] | exhibiting effect across each donor | – | – | – | – | – | –
MTSAIGILPV (listed as Homo sapiens) [APL 5] | most effective super-agonist | most effective of the candidate super-agonists at priming | superior lysis | presence | killed more autologous cancer cells than the unprimed T-cells | induced a greater proportion of IMP-2 cells | killed more CLL cells than the IMP-2 primed CD8s
